Experiment [1] has as its target T1, hRUP25 (Homo sapiens, UniProt Q8TDS4). Nature of the experiment: Flash Plate adenylyl cyclase (cAMP) assay for agonists to hRUP25 in stably transfected CHO cells (clone 46). In kind it is cell-based. The conditions noted are these: read-out: RUP25 (EC50). From the text:
A modified Flash Plate™ Adenylyl Cyclase kit (New England Nuclear; Cat. No. SMP004A) is used for direct identification of candidate compounds as agonists to hRUP25 in accordance with the following protocol:
Stably transfected CHO cells (clone 46) were harvested from flasks via non-enzymatic means. The cells were washed in PBS and resuspended in the manufacturer's Assay Buffer. Live cells were counted using a hemacytometer and Trypan blue exclusion, and the cell concentration was adjusted to 2×10^6 cells/ml. cAMP standards and Detection Buffer (comprising 2 μCi of tracer [^125I]-cAMP (100 μl) to 11 ml Detection Buffer) were prepared and maintained in accordance with the manufacturer's instructions. Candidate compounds identified as per above (if frozen, thawed at room temperature) were added to their respective wells (preferably wells of a 96-well plate) at increasing concentrations (3 μl/well; 12 μM final assay concentration). To these wells, 100,000 cells in 50 μl of Assay Buffer were added and the mixture was then incubated for 30 minutes at room temperature, with gentle shaking. Following the incubation, 100 μl of Detection Buffer was added to each well, followed by incubation for 2-24 hours. Plates were counted in a Wallac MicroBeta™ plate reader using “Prot. #31” (as per manufacturer instructions).

Experiment [2] concerns adipocyte primary cultures derived from human subcutaneous fat. Particulars: read-out: EC50, inhibition of isoproterenol induced lipolysis.
Source text: (§1) Lipolysis assays were done following the isolation of adipocytes from-rat or human. The source of fat from rats was the epididymal fat and from humans was either subcutaneous or omental. Cells were isolated following collagenase digestion and floatation. An elevation of intracellular cAMP levels and concomitant activation of lipolysis via hormone sensitive lipase was accomplished using isoproterenol, forskolin, 3-isobutyl-1-methyl-xanthine (IBMX) or a combination thereof at concentrations and times determined empirically and depending on the source of tissue. […] Data was analyzed using Excel and PrismGraph.
The target of experiment [3] is T1, hRUP25. The experiment in a line: cell-based.
For experiment [4], the system named is rat epidimal fat derived adipocytes.
Source text: as §1
In experiment [5] the test system is adipocyte primary cultures derived from human subcutaneous fat. The experiment in a line: cells. Particulars: read-out: EC50, inhibition of isoproterenol induced lipolysis.
Source text: as §1

This is an account of results in patent US20070032537A1, “5-Substituted 2h-pyrazole-3-carboxylic acid derivatives as agonists for the acid receptor rup25 for the treatment of dyslipidemia and related diseases” (Arena Pharmaceuticals, Inc., priority 2003, published 2007).

Like-named read-outs stand apart in the source and are kept apart here.

T1 sequence (Q8TDS4 whole entry): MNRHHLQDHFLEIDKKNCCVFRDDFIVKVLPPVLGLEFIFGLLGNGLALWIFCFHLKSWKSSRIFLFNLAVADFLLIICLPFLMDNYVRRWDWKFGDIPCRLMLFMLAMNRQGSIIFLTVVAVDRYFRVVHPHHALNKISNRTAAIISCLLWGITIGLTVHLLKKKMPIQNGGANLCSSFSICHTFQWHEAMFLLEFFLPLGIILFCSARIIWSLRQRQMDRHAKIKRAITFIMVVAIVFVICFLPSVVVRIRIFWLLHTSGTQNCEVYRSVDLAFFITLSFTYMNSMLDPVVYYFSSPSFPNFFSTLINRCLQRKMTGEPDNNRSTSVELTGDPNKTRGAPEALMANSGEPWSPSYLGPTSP

One may read the EC50 as the concentration giving half of the maximal effect. On to `CSCc1cc(C(=O)O)[nH]n1` [Compound 48, 5-Methylsulfanylmethyl-2H-pyrazole-3-carboxylic acid], for which, in experiment [1], the EC50 came to 4.3 µM.

Take `COCc1cc(C(=O)O)[nH]n1` [Compound 63, 5-Methoxymethyl-2H-pyrazole-3-carboxylic acid]: the EC50 in experiment [1] is 7.9 µM.

With `c1cncc(-c2nn[nH]n2)c1` [Compound P-3-T, 3-tetrazole-5-pyridine], in experiment [2], the EC50 amounted to 0.218 µM.

`CN1CCCC1c1cccnc1` (stereo not shown) [nicotine]: in experiment [3], the midpoint of the response, the EC50, lay at 9.8 µM.

As for `O=C(O)c1cccnc1` [nicotinic acid, pyridine-3-carboxylic acid], the “inhibition of isoproterenol induced lipolysis” value in experiment [4] (10 μM) is listed as “inhibiting isoproterenol induced lipolysis”. Moreover, the “dose-dependence of inhibition of isoproterenol induced lipolysis” value in experiment [4] (increasing concentrations) is “dose-dependent inhibition”. Besides, the EC50 in experiment [5] is 0.716 µM.
